Test results from publication PMC6897379 (Clinical cancer research : an official journal of the …, 2019).
Where two headings read alike, the source gives them in different places.

How the values were obtained:
[1] = tested on: relapsed/refractory solid tumors or acute leukemia; experiment: Phase 2 trial; assay type: in vivo, human
[2] = Phase 2 trial toxicity monitoring; assay type: in vivo, human
[3] = Plasma pharmacokinetics in children and adolescents, with UGT1A1 phenotype; assay type: in vivo, human; conditions: for concentration at 4 day: 80 mg/m^2, Alisertib Cmin Median (range), day 4, I/E, I, P
[4] = Toxicity versus germline AURKA genotype; assay type: in vivo, human
[5] = tested on: ALL-8 xenograft; experiment: ALL-8 xenograft, comparison of dosing schedules; assay type: in vivo, NOD/SCID mice
[6] = tested on: ALL-19 xenograft; experiment: ALL-19 xenograft, comparison of dosing schedules; assay type: in vivo, NOD/SCID mice
[7] = cited from earlier work
[8] = children, cited from earlier work
[9] = tested on: relapsed or refractory solid tumors; conditions: cited from earlier work
[10] = mice receiving 10 mg/kg; cited from earlier work
[11] = tested on: NBL xenografts; conditions: PPTP; cited from earlier work
[12] = tested on: ALL xenografts; conditions: PPTP; cited from earlier work
[13] = tested on: pediatric solid tumor models; conditions: cited from earlier work
[14] = tested on: p53-wildtype, therapy-refractory NBL cell lines; conditions: cited from earlier work
[15] = tested on: atypical teratoid rhabdoid (ATRT) cell lines; conditions: ATRT cell lines that overexpress AAK with SMARCB1 mutations; cited from earlier work
[16] = adults; twice daily for 7 days; DLT neutropenia and stomatitis; cited from earlier work
[17] = Acute Lymphoblastic Leukemia, 10 response evaluable
[18] = Ewing Sarcoma, 10 response evaluable
[19] = Germ Cell Tumor, 7 response evaluable
[20] = Hepatoblastoma, 8 response evaluable
[21] = Neuroblastoma (MIBG Evaluable), 24 response evaluable
[22] = Neuroblastoma (Measurable), 24 response evaluable
[23] = Non-Rhabdo Soft Tissue Sarcoma, 10 response evaluable
[24] = Osteosarcoma, 10 response evaluable
[25] = Rhabdoid Tumors, 4 response evaluable
[26] = Rhabdomyosarcoma, 10 response evaluable
[27] = Total, all strata, 137 response evaluable
[28] = Wilms tumor, 10 response evaluable
[29] = human, in vivo, 1 cycle (21 days)
[30] = Schedule A, 10.4 mg/kg oral gavage twice daily × 7 days
[31] = Schedule A, twice daily × 7 days
[32] = Schedule B, 10.4 mg/kg oral gavage twice daily × 5 days × 3 weeks
[33] = Schedule B, twice daily × 5 days × 3 weeks
[34] = adults, 50 mg enteric coated tablets
[35] = population PK model, 363 adults, 7 single agent trials

COc1cc(Nc2ncc3c(n2)-c2ccc(Cl)cc2C(c2c(F)cccc2OC)=NC3)ccc1C(=O)O [alisertib, Alisertib]
Non-responders [1, 17]: 1 | Progressive Disease [1, 17]: 6 | Stable Disease n patients [1, 17]: 3 n patients | Non-responders ([1]; Acute Myeloid Leukemia, 10 response evaluable): 10 | Non-responders [1, 18]: 2 | Progressive Disease [1, 18]: 5 | Stable Disease n patients [1, 18]: 3 n patients | Non-responders [1, 19]: 1 | Progressive Disease [1, 19]: 4 | Stable Disease n patients [1, 19]: 2 n patients | Stable Disease cycles administered ([1]; Hepatoblastoma): 5 cycles | Non-responders [1, 20]: 2 | Progressive Disease [1, 20]: 4 | Stable Disease n patients [1, 20]: 1 n patients | Stable Disease median (range) cycles administered ([1]; Neuroblastoma (MIBG Evaluable)): 13 (5–35) cycles | Non-responders [1, 21]: 4 | Progressive Disease [1, 21]: 9 | Stable Disease n patients [1, 21]: 9 n patients | Non-responders [1, 22]: 5 | Progressive Disease [1, 22]: 16 | Stable Disease n patients [1, 22]: 2 n patients | Stable Disease cycles administered ([1]; Non-Rhabdo Soft Tissue Sarcoma): 5 cycles | Non-responders [1, 23]: 2 | Progressive Disease [1, 23]: 7 | Stable Disease n patients [1, 23]: 1 n patients | Responses in the other primary disease strata ([1]; OS, EWS, RMS, ALL, AML): No responses | Non-responders [1, 24]: 2 | Progressive Disease [1, 24]: 8 | Non-responders [1, 25]: 1 | Progressive Disease [1, 25]: 3 | Stable Disease cycles administered ([1]; Rhabdomyosarcoma): 15 cycles | Non-responders [1, 26]: 2 | Progressive Disease [1, 26]: 7 | Stable Disease n patients [1, 26]: 1 n patients | Non-responders [1, 27]: 33 | Progressive Disease [1, 27]: 76 | Stable Disease n patients [1, 27]: 23 n patients | Stable Disease cycles administered ([1]; Wilms tumor): 31 cycles | Non-responders [1, 28]: 1 | Progressive Disease [1, 28]: 7 | Stable Disease n patients [1, 28]: 1 n patients | Objective responses observed ([1]; all strata, 137 evaluable for response): Five | Objective response rate ([1]; children and adolescents receiving single agent alisertib): less than 5% | Dehydration Grade 3 ([2]; alisertib related, all cycles (n=500)): 6 (1.2%) n (%) | Patients with fatal adverse events possibly related to alisertib ([2]; during cycle 1): two | ALT increased Grade 3 ([2]; human, in vivo): 17 (3.4%) n (%) | AST increased Grade 3 ([2]; human, in vivo): 10 (2%) n (%) | Alisertib-related grade 3 or 4 anemia ([2]; human, in vivo): 13.6% | Alisertib-related grade 3 or 4 leukopenia ([2]; human, in vivo): 33% | Alisertib-related grade 3 or 4 lymphopenia ([2]; human, in vivo): 12.2% | Alisertib-related grade 3 or 4 neutropenia ([2]; human, in vivo): 51.8% | Alisertib-related grade 3 or 4 thrombocytopenia ([2]; human, in vivo): 20.8% | Anemia Grade 3 ([2]; human, in vivo): 63 (12.6%) n (%) | Anemia Grade 4 ([2]; human, in vivo): 5 (1%) n (%) | Anorexia Grade 3 ([2]; human, in vivo): 1 (0.2%) n (%) | Depression Grade 4 ([2]; human, in vivo): 1 (0.2%) n (%) | Diarrhea Grade 3 ([2]; human, in vivo): 2 (0.4%) n (%) | Dizziness Grade 3 ([2]; human, in vivo): 14 (2.8%) n (%) | Enterocolitis Grade 3 ([2]; human, in vivo): 1 (0.2%) n (%) | Febrile neutropenia Grade 3 ([2]; human, in vivo): 18 (3.6%) n (%) | GGT increased Grade 3 ([2]; human, in vivo): 1 (0.2%) n (%) | Hepatic hemorrhage Grade 5 ([2]; human, in vivo): 1 (0.2%) n (%) | Hyperbilirubinemia Grade 3 ([2]; human, in vivo): 3 (0.6%) n (%) | Hypersomnia Grade 3 ([2]; human, in vivo): 1 (0.2%) n (%) | Hyperuricemia Grade 4 ([2]; human, in vivo): 1 (0.2%) n (%) | Hypoalbuminemia Grade 3 ([2]; human, in vivo): 1 (0.2%) n (%) | Hypocalcemia Grade 3 ([2]; human, in vivo): 1 (0.2%) n (%) | Hypokalemia Grade 3 ([2]; human, in vivo): 4 (0.8%) n (%) | Hypokalemia Grade 4 ([2]; human, in vivo): 1 (0.2%) n (%) | Hyponatremia Grade 3 ([2]; human, in vivo): 3 (0.6%) n (%) | Hypophosphatemia Grade 3 ([2]; human, in vivo): 1 (0.2%) n (%) | INR increased Grade 3 ([2]; human, in vivo): 1 (0.2%) n (%) | Infection Grade 3 ([2]; human, in vivo): 1 (0.2%) n (%) | Leukopenia Grade 3 ([2]; human, in vivo): 117 (23.4%) n (%) | Leukopenia Grade 4 ([2]; human, in vivo): 48 (9.6%) n (%) | Lymphopenia Grade 3 ([2]; human, in vivo): 47 (9.4%) n (%) | Lymphopenia Grade 4 ([2]; human, in vivo): 14 (2.8%) n (%) | Nausea Grade 3 ([2]; human, in vivo): 2 (0.4%) n (%) | Neutropenia Grade 3 ([2]; human, in vivo): 124 (24.8%) n (%) | Neutropenia Grade 4 ([2]; human, in vivo): 137 (27.4%) n (%) | Oral mucositis Grade 3 ([2]; human, in vivo): 19 (3.8%) n (%) | Palmar-plantar erythrodysesthesia Grade 3 ([2]; human, in vivo): 2 (0.4%) n (%) | Photophobia Grade 3 ([2]; human, in vivo): 1 (0.2%) n (%) | Pneumonia Grade 3 ([2]; human, in vivo): 1 (0.2%) n (%) | Respiratory failure Grade 5 ([2]; human, in vivo): 1 (0.2%) n (%) | Serum amylase increased Grade 3 ([2]; human, in vivo): 1 (0.2%) n (%) | Thrombocytopenia Grade 3 ([2]; human, in vivo): 54 (10.8%) n (%) | Thrombocytopenia Grade 4 ([2]; human, in vivo): 50 (10%) n (%) | Tumor lysis syndrome Grade 4 ([2]; human, in vivo): 1 (0.2%) n (%) | Urinary tract infection Grade 3 ([2]; human, in vivo): 1 (0.2%) n (%) | Vomiting Grade 3 ([2]; human, in vivo): 2 (0.4%) n (%) | Patients who experienced dose limiting toxicity [2, 29]: 18 patients | Patients who experienced dose limiting toxicity, percent [2, 29]: 13% | Oral pain Grade 3 ([2]; human, in vivo, po): 5 (1%) n (%) | Most frequent toxicity ([2]; in vivo): myelosuppression | Patients exceeding the 1 μM target trough concentration on day 4 ([3]; 26/39 patients): 67% | Difference in population mean trough concentrations ([3]; IM/PM versus EM, p 0.0091): 1.05 µM | Patients with Cmin exceeding 1μM on day 7 ([3]; human, in vivo, 7 day): 41% | concentration at 4 day ([3]; human, plasma, oral, Grade ≥ 2: Yes (n=8)): 1800 nM | concentration at 4 day ([3]; human, plasma, oral, Grade ≥ 2, No (n=8)): 2220 nM | concentration at 7 day ([3]; human, plasma, oral, 80 mg/m^2, Median Cmin on day 7, cycle 1): 900 nM | Difference in population mean trough concentrations ([3]; with versus without ≥ grade 2 toxicities, not statistically significant): 0.08 µM | Cycle 1 DLT No ([4]; AURKA 91 A>T VV): 8 | Grade 2+ Toxicity Yes ([4]; AURKA 91 A>T VV): 8 | Cycle 1 DLT Yes ([4]; AURKA 91 A>T WV): 5 | Grade 2+ Toxicity No ([4]; AURKA 91 A>T WV): 5 | Cycle 1 DLT Yes ([4]; AURKA 91 A>T WW): 8 | Grade 2+ Toxicity No ([4]; AURKA 91 A>T WW): 9 | Cycle 1 DLT No ([4]; AURKA 169G>A VV): 2 | Grade 2+ Toxicity No ([4]; AURKA 169G>A VV): 1 | Grade 2+ Toxicity Yes ([4]; AURKA 169G>A VV): 1 | Cycle 1 DLT No ([4]; AURKA 169G>A WV): 18 | Cycle 1 DLT Yes ([4]; AURKA 169G>A WV): 3 | Grade 2+ Toxicity No ([4]; AURKA 169G>A WV): 4 | Cycle 1 DLT Yes ([4]; AURKA 169G>A WW): 10 | Grade 2+ Toxicity No ([4]; AURKA 169G>A WW): 9 | Grade 2+ Toxicity Yes ([4]; AURKA 169G>A WW): 54 | Cycle 1 DLT No ([4]; AURKA Haplotype H1): 25 | Cycle 1 DLT Yes ([4]; AURKA Haplotype H1): 5 | Grade 2+ Toxicity No ([4]; AURKA Haplotype H1): 4 | Cycle 1 DLT Yes ([4]; AURKA Haplotype H2): 8 | Grade 2+ Toxicity No ([4]; AURKA Haplotype H2): 10 | Cycle 1 DLT Yes ([4]; Total genotyped patients): 13 | Grade 2+ Toxicity No ([4]; Total genotyped patients): 14 | Objective response ([5]; Schedule A and Schedule B): neither of the treatment schedules induced an objective response | Median EFS Treated [5, 30]: 19.8 days | EFS T-C [5, 31]: 10.9 days | EFS T/C [5, 31]: 2.2 | Median EFS Treated [5, 32]: 31.9 days | EFS T-C [5, 33]: 23.0 days | EFS T/C [5, 33]: 3.6 | Human cells in the bone marrow, lowest levels achieved ([5]; both alisertib schedules): approximately 20% | Human cells in the spleen, lowest levels achieved ([5]; both alisertib schedules): 5–10% | Additional delay of leukemia progression, Schedule B compared with Schedule A ([5]; p=0.004): 12.1 days | Median EFS Treated [6, 30]: 13.6 days | Leukemia progression compared with controls ([6]; Schedule A, serial peripheral blood parameters): not significantly different from that of controls | EFS T-C [6, 31]: 7.0 days | EFS T/C [6, 31]: 2.0 | Median Response Score [6, 31]: PD2 | Median EFS Treated [6, 32]: 31.2 days | EFS T-C [6, 33]: 24.6 days | EFS T/C [6, 33]: 4.7 | Area under concentration time curve (AUC) [7, 34]: 20.9 µM·h | Steady state trough concentration (Cmin) [7, 34]: exceeding 1 μM | AUC0–24 h ([7]; patients receiving 50 mg BID): 40 µM·h | Cmax ([7]; patients receiving 50 mg BID): 1300 nM | Apparent clearance (CL/F) [7, 35]: 4.25 L/h | Terminal half-life [7, 35]: 19.3 h | Average trough concentrations ([7]; recommended phase 2 dose of 50 mg BID for 7 days): exceeded 1 μM | Trough 24 hours after the first dose ([8]; 80 mg/m^2 dose level): 1.1 µM | Cmax ([8]; recommended dose 80 mg/m^2): 7500 ± 100 nM | Duration of stable disease ([9]; 8 children, phase 1 trial): 5–35 cycles | Children with stable disease ([9]; NBL (n=4) and sarcoma (n=4), of 33 response evaluable children): 8 | Recommended phase 2 dose ([9]; children and adolescents, orally, once daily for 7 days): 80 mg/m^2 | Children with a PR ([9]; hepatoblastoma, of 33 response evaluable children): one | 12 h level [10]: 1.2 µM | AUC0–24 h [10]: 39 µM·h | Cmax [10]: 16000 nM | Xenografts with maintained complete responses [11]: 3 of 7 | Xenografts with maintained complete responses [12]: 6 out of 6 | Event free survival ([13]; Wilms tumor, rhabdomyosarcoma and osteosarcoma xenograft models): Statistically significant improvement | Solid tumor models with objective responses ([13]; pediatric xenograft models): 80% | Activity in cell lines [14]: active | Effect on cell lines [15]: induce cell death and augment radiation sensitivity | Recommended dose [16]: 50 mg
